Like-named read-outs stand apart in the source and are kept apart here.
Assays:
Test in all cases: selectivity profiling in a panel of 340 wild-type kinases (Reaction Biology Europe)
Format in all cases: binding
340 wild-type kinases [1] = target: T1, 340 wild-type kinases (Homo sapiens, UniProt P11309)
T1 construct: purchased Reaction Biology Europe

340 wild-type kinases [2] = target: T2, 340 wild-type kinases (Homo sapiens, UniProt Q8NG66)
T2 construct: purchased Reaction Biology Europe
T2 sequence (Q8NG66 1-645): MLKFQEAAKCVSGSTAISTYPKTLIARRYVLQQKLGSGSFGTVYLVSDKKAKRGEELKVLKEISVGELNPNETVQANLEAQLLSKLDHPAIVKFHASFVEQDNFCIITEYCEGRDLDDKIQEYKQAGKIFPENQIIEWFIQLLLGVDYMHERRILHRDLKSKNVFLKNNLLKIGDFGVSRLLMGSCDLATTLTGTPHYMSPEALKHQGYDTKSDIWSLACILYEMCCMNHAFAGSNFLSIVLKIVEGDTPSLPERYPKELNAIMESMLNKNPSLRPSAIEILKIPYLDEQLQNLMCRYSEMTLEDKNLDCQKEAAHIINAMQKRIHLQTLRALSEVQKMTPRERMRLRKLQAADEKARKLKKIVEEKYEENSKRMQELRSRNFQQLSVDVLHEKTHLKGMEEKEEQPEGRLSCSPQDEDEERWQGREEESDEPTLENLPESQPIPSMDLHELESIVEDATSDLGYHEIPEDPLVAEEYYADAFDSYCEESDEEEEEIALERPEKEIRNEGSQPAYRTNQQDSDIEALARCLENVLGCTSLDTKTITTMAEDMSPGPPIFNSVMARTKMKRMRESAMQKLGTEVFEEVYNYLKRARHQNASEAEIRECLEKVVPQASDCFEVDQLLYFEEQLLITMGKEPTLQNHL

340 wild-type kinases [3] = target: T3, 340 wild-type kinases (Homo sapiens, UniProt Q86UE8)
T3 construct: purchased Reaction Biology Europe

340 wild-type kinases [4] = target: T4, 340 wild-type kinases (Homo sapiens, UniProt Q32MK0)
T4 construct: purchased Reaction Biology Europe
T4 sequence (Q32MK0 1-819): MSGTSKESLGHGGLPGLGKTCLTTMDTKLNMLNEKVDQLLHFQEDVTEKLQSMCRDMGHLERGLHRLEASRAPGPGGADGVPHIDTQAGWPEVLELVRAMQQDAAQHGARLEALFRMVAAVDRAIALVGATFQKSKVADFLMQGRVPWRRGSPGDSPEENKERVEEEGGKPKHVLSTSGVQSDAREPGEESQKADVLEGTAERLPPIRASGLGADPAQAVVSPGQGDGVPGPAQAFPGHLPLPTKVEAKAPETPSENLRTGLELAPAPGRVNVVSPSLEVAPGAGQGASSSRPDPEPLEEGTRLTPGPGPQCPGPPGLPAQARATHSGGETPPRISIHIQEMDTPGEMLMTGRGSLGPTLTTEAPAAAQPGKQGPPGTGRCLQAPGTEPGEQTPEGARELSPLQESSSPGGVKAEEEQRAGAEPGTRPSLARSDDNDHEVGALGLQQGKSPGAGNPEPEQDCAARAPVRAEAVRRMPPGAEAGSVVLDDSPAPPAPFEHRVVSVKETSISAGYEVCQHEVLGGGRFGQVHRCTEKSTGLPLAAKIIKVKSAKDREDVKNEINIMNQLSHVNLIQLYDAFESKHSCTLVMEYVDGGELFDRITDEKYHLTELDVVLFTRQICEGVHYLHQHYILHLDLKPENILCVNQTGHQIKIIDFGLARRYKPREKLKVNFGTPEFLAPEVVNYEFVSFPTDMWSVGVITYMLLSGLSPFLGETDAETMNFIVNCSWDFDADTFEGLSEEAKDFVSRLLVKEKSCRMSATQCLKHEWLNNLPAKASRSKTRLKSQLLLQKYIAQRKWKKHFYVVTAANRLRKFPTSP

340 wild-type kinases [5] = target: T5, 340 wild-type kinases (Homo sapiens, UniProt Q07912)
T5 construct: purchased Reaction Biology Europe

340 wild-type kinases [6] = target: T6, 340 wild-type kinases (Homo sapiens, UniProt O00444)
T6 construct: purchased Reaction Biology Europe
T6 sequence (O00444 1-970): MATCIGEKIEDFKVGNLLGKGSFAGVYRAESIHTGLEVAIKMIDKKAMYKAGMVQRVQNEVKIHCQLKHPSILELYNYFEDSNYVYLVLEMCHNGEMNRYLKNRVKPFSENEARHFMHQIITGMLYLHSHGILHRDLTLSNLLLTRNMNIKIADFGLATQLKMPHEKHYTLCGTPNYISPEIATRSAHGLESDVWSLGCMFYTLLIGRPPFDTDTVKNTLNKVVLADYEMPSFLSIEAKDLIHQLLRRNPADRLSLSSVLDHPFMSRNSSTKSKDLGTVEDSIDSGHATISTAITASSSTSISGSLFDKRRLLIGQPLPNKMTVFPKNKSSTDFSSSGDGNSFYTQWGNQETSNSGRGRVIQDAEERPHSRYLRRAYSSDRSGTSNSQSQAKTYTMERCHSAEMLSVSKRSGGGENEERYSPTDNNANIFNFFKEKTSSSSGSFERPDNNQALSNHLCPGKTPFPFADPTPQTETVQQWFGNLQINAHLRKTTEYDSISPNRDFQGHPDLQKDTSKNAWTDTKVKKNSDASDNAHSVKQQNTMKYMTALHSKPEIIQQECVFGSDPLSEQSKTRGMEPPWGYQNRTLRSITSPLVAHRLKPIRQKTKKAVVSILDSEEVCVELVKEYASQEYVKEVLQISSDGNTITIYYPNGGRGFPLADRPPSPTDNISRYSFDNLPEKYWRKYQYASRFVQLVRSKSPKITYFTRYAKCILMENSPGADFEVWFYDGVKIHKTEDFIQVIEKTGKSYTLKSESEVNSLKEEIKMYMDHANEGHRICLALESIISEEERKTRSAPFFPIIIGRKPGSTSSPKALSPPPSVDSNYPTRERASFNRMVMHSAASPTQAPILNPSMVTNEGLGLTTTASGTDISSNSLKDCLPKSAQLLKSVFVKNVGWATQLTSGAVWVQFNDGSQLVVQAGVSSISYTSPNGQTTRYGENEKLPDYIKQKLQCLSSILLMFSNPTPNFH

T5 sequence (Q07912 whole entry): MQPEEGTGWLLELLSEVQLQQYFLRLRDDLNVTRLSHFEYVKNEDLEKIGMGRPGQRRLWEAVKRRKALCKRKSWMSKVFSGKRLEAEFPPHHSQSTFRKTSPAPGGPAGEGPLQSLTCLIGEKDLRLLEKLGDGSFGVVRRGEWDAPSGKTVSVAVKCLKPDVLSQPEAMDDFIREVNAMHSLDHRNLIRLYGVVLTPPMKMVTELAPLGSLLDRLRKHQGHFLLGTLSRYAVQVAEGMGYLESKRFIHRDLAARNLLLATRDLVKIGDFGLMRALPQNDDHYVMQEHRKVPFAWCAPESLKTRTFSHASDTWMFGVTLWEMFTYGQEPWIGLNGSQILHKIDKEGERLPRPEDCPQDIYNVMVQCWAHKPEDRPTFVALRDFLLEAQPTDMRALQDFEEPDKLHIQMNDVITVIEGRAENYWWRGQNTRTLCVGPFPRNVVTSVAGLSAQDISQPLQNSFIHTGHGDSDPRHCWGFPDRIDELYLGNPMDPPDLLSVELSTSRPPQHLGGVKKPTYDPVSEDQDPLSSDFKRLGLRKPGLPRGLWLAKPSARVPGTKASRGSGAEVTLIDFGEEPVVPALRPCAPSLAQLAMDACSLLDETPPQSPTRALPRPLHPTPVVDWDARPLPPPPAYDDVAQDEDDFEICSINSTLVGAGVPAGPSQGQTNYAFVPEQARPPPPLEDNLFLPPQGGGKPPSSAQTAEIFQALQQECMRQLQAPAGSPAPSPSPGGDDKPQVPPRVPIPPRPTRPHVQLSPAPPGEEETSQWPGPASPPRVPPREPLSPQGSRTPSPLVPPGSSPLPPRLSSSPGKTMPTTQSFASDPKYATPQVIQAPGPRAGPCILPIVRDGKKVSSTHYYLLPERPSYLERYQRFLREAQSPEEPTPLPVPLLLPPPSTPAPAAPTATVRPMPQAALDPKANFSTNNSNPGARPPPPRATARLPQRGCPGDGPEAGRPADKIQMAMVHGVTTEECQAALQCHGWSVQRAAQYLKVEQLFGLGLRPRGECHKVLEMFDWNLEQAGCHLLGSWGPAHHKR
T1 sequence (P11309 whole entry): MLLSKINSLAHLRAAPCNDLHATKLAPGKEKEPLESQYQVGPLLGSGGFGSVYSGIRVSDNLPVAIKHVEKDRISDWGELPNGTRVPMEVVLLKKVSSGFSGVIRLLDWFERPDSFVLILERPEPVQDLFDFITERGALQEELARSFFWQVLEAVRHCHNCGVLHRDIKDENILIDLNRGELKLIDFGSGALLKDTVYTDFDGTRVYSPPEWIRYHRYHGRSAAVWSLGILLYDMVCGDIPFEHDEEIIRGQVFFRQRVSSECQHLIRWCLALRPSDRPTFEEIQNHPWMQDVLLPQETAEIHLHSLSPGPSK
T3 sequence (Q86UE8 whole entry): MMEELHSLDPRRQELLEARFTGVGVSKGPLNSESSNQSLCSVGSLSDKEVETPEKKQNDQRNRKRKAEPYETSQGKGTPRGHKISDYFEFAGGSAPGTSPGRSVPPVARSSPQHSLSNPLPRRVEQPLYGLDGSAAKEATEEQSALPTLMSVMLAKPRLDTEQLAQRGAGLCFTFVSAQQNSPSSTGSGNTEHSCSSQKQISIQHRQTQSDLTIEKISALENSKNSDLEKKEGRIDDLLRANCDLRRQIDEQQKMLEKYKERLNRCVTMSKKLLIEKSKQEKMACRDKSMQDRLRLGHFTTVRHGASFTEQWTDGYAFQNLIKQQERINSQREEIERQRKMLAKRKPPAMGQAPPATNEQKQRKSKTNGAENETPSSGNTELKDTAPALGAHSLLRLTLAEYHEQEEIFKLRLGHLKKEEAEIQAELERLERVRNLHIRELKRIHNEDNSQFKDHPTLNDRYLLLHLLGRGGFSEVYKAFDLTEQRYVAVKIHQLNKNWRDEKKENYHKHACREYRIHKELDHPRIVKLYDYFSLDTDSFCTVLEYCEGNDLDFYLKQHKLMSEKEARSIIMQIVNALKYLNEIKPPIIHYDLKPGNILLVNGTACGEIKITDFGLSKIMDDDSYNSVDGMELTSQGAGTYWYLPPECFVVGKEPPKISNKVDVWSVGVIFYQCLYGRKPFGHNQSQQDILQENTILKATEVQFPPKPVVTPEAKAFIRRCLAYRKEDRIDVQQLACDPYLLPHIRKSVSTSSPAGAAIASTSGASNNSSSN

With CNC(=O)c1ccc2c(c1)C(=O)c1ccc(Nc3ccc(F)c(NC(=O)C4CC4)c3)cc1CC2 [Compound 2015] the remaining activity at 0.2 µM (340 wild-type kinases [1]; 0.2 µM 2015, read-out: PIM1 residual activity) was 88.3%, the remaining activity at 1 µM (340 wild-type kinases [1]; 1 µM 2015, read-out: PIM1 residual activity) was 91% and the remaining activity at 0.2 µM (340 wild-type kinases [1]; PIM1, 0.2 µM, read-out: residual activity) was 88.3%. It also gave a remaining activity at 1 µM (340 wild-type kinases [1]; PIM1, 1 µM, read-out: residual activity) of 91%, a remaining activity at 1 µM (340 wild-type kinases [2]; 1 µM 2015, read-out: NEK11 residual activity) of 95.8% and a remaining activity at 0.2 µM (340 wild-type kinases [2]; NEK11, 0.2 µM, read-out: residual activity) of 91.3%. For the same compound, the remaining activity at 1 µM (340 wild-type kinases [2]; NEK11, 1 µM, read-out: residual activity) was 95.8%, the remaining activity at 0.2 µM (340 wild-type kinases [3]; 0.2 µM 2015, read-out: TLK2 residual activity) was 147% and the remaining activity at 1 µM (340 wild-type kinases [3]; 1 µM 2015, read-out: TLK2 residual activity) was 124%. For the same compound, the remaining activity at 0.2 µM (340 wild-type kinases [3]; TLK2, 0.2 µM, read-out: residual activity) was 147%, the remaining activity at 1 µM (340 wild-type kinases [3]; TLK2, 1 µM, read-out: residual activity) was 124% and the remaining activity at 0.2 µM (340 wild-type kinases [4]; 0.2 µM 2015, read-out: MYLK3 residual activity) was 106%. The remaining activity at 1 µM (340 wild-type kinases [4]; 1 µM 2015, read-out: MYLK3 residual activity) was 93.5%, the remaining activity at 0.2 µM (340 wild-type kinases [4]; MYLK3, 0.2 µM, read-out: residual activity) was 106% and the remaining activity at 1 µM (340 wild-type kinases [4]; MYLK3, 1 µM, read-out: residual activity) was 93.5%. For the same compound, the remaining activity at 0.2 µM (340 wild-type kinases [5]; 0.2 µM 2015, read-out: ACK1 residual activity) was 110%, the remaining activity at 1 µM (340 wild-type kinases [5]; 1 µM 2015, read-out: ACK1 residual activity) was 108% and the remaining activity at 0.2 µM (340 wild-type kinases [5]; ACK1, 0.2 µM, read-out: residual activity) was 110%. For the same compound, the remaining activity at 1 µM (340 wild-type kinases [5]; ACK1, 1 µM, read-out: residual activity) was 108%, the remaining activity at 0.2 µM (340 wild-type kinases [6]; 0.2 µM 2015, read-out: SAK residual activity) was 103% and the remaining activity at 1 µM (340 wild-type kinases [6]; 1 µM 2015, read-out: SAK residual activity) was 104%. It also gave a remaining activity at 0.2 µM (340 wild-type kinases [6]; SAK, 0.2 µM, read-out: residual activity) of 103% and a remaining activity at 1 µM (340 wild-type kinases [6]; SAK, 1 µM, read-out: residual activity) of 104%.

Source: paper PMC11864979, “First-in-class ultralong-target-residence-time p38α inhibitors as a mitosis-targeted therapy for colorectal cancer” (Nature Cancer, 2025)
